Test results reported in PMC2175304 (Nucleic Acids Research, 2007).

Biological target: Trm6p/Trm61p complex (yeast tRNA m^1A58 Mtase) (Saccharomyces cerevisiae, UniProt P46959)
Test: biochemical

Sequence of Trm6p/Trm61p complex (yeast tRNA m^1A58 Mtase) (P46959 whole entry): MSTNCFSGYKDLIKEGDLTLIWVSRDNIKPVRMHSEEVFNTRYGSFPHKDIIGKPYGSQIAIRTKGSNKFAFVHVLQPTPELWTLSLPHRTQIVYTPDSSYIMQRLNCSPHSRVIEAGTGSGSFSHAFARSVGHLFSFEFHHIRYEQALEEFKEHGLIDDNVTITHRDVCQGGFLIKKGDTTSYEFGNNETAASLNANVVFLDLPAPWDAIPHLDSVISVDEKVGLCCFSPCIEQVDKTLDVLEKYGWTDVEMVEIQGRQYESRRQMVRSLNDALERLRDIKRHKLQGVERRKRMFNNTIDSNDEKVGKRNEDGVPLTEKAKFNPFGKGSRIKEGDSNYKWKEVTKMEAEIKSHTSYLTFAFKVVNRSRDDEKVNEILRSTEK
Sequence of Trm6p/Trm61p complex (yeast tRNA m^1A58 Mtase) (P41814 whole entry partner): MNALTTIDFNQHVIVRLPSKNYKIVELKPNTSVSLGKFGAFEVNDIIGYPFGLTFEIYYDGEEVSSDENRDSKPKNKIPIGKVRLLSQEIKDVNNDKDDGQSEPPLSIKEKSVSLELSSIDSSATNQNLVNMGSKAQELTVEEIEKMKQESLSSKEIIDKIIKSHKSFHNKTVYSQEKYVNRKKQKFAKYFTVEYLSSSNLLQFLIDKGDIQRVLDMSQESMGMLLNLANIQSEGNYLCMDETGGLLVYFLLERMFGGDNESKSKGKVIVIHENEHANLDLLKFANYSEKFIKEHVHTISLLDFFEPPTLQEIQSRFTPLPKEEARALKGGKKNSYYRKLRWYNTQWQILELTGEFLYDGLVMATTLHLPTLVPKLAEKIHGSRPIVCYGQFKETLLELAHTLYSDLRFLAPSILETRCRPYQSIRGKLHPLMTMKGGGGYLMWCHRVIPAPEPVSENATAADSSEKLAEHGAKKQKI

C[S+](CC[C@H](N)C(=O)O)C[C@H]1O[C@@H](n2cnc3c(N)ncnc32)[C@H](O)[C@@H]1O (stereo partly shown) [AdoMet]
Kd: 376 ± 73 µM
